In patent publication US20230027854A1, “ISOXAZOLE DERIVATIVES TARGETING TACC3 AS ANTICANCER AGENTS” (A2A Pharmaceuticals, inc., priority 2019, published 2023):
Where two headings read alike, the source gives them in different places.

Key:
[1] = tested on: JIMT-1 cells; experiment: JIMT-1 cell growth inhibition / cell viability (SRB assay); assay type: cell-based; conditions: Homo sapiens
Method: The ability of the compounds of the present disclosure to treat TACC3-mediated cancers, or associated symptoms or complications thereof, was determined using the following procedures. The compounds of the present disclosure were tested for their activity against cell death induction using a JIMT-1 cell line, which was a cell line having high level of TACC3. The concentration of each compound that was required for half-maximal inhibition of cell proliferation was calculated by a GraphPad Prism (GraphPad Software).

[2] = tested on: JIMT-1, MDA-MB-436, MDA-MB-157 and BT-474 T-DM1R cell lines; experiment: Cell viability (SRB) of breast cancer cell lines, three TACC3 inhibitors compared; assay type: cell-based, human; conditions: all cell lines tested, 72 hours
Method: (§1) JIMT-1, MDA-MB-436, MDA-MB-157 and BT-474 T-DM1R cell lines were tested with respect to their response to these three drugs. […] Although higher KHS101 doses was included, which were used by others (Campo & Breuer, 2018), an induction of these markers was only observed at very high doses.

[3] = tested on: JIMT-1 cells; experiment: Western blot of mitotic arrest, DNA damage and apoptosis markers; assay type: cell-based, human; conditions: 24 hours, dose response
Method: as §1

[4] = tested on: JIMT-1 cells; experiment: Annexin V/PI staining; assay type: cell-based, human; conditions: 500 nM, 72 h; vehicle 4.1%
[5] = tested on: RT112 and RT4; experiment: Cell viability (SRB) of FGFR3-TACC3 fusion expressing cell lines; assay type: cell-based, human; conditions: both models RT112 and RT4, 3 days
Method: KHS101 (Sigma Aldrich) and SPL-B (Axon MedChem, VA, USA) were dissolved in 100% DMSO to yield a stock concentration of 50 mM. Newly synthesized molecules were dissolved in 100% DMSO to yield a stock concentration of 10 mM. […] Cell viability was measured 72 hours after treatment with Sulforhodamine B (SRB, Sigma Aldrich) assay as recommended by the manufacturer.

[6] = tested on: JIMT-1 xenografts; experiment: JIMT-1 xenograft tumor growth in female nude mice; assay type: in vivo
[7] = tested on: EMT6; conditions: 25 mg/kg every day orally
Method: Murine triple negative breast cancer (TNBC) cell line, EMT6, which is a fast-growing and highly aggressive model (Yang, Yang et al. 2017), was injected into MFPs of syngeneic Balb/c mice.
Six-to-eight-week-old female athymic nude or Balb/c mice were housed with a temperature-controlled and 12-hour light/12-hour dark cycle environment. This study was carried out in accordance with Institutional Animal Care and Use Committee of Bilkent University and performed according to the institution's guidelines and animal research principles. For in vivo breast cancer tumor growth in nude mice, 4×10^6 JIMT-1 cells were prepared in 150 μl of 1:1 DMEM and Matrigel (Corning, N.Y., USA), v/v) and injected into the mammary fat pads (MFP) of female nude mice. Mouse weight and tumor volume were measure daily using calipers. Tumor volumes were calculated as length×width^2×0.5. Once the tumor volume had reached about 90-100 mm^3, xenografts were randomized into groups. […] Mice were sacrificed 20-30 days after initiation of the treatments, and the tumors were collected and stored for subsequent analyses. […] 1×10^6 EMT-6 cells were prepared in PBS and injected into MFPs of mice. […] Survival was calculated using a predefined tumor volume cut-off of 1500 mm^3.

[8] = tested on: CT26; conditions: 25-50 mg/kg daily and orally
Method: (§2) Female nude mice and Balb/c mice were injected with human colon carcinoma cell line, HCT-116, and murine colon carcinoma cell line, CT26, respectively, into flank region of mice.
(§3) 4×10^6 HCT-116 and 1×10^6 cells were prepared either in matrigel:PBS or in PBS, respectively, and injected subcutaneously into flank region of mice. […] Mice body weight was measured regularly.

[9] = tested on: HCT-116; conditions: 25-50 mg/kg daily and orally
Method: as §2, §3

[10] = tested on: 4T1-Luc2; experiment: 4T1-Luc2 lung metastasis model; assay type: in vivo, mice
Method: Next, to examine the effects of TACC3 inhibition on metastatic growth, an aggressive murine mammary tumor cells, 4T1-Luc2 (luciferase labelled), were injected intravenously to immunocompetent female mice. […] Metastatic outgrowth was monitored with in vivo imaging system (IVIS) by measuring bioluminescence.
Highly aggressive and metastatic 4T1-Luc2 (luciferase labelled) cells were prepared in PBS as 1×10^6 cells/mouse and injected intravenously to Balb/c female mice. Metastasis development was monitored using in vivo imaging system (IVIS) and bioluminescence was quantified regularly. […] Survival was calculated when mice died.

[11] = Log D, octanol/sodium phosphate buffer; assay type: physicochemical; conditions: octanol/sodium phosphate buffer (50 mM, pH 7.4); read-out: log D7.4
[12] = Stability in mouse liver microsomes; assay type: in vitro ADME
[13] = target: T1, TACC3 (Homo sapiens, UniProt Q9Y6A5); experiment: Isothermal titration calorimetry (ITC) of TACC3 into compound 5; assay type: binding; set-up: purchased Origene TP310754; conditions: 25° C.
Method: (§4) DARTS is a label free-strategy to identify potential direct protein targets for small molecules and is based on stabilization and protection from proteolysis of the target protein upon binding to small molecules (Lomenick, Jung et al. 2011, Pai, Lomenick et al. 2015).
Titrations were carried out using Microcal 200 equipment (GE Healthcare, Austria) at 25° C. For each titration, 10 injections were made with 6 min spacing. The reference power was set at 2 μcal/sec, and the sample cell was continuously stirred at 500 rpm. In order to assess the binding efficiency between drug and protein, background data obtained by protein injected into buffer alone was subtracted from the experimental isotherms. The data was analyzed using Origin 7 Software provided along with the ITC200, and binding parameters such as association constant (Ka), number of binding sites (N) and enthalpy (ΔH) were calculated.

[14] = target: T1, TACC3; experiment: Drug affinity responsive target stability (DARTS) with JIMT-1 cell protein extracts; assay type: binding; set-up: endogenous in cells; host or cells: JIMT-1; conditions: 10 μM
Description: as §4

[15] = 2 mg/kg (po. or i.v) or 5 mg/kg (po.) every two days for 30 days
[16] = 5 mg/kg oral every other day for 30 days

In the case of `COc1ccc(-c2cc(Nc3ccnc(N4CCOCC4)n3)on2)cc1` [Compound 5], the IC50 ([1]; JIMT-1 cells, read-out: IC50) is reported as 120 nM, the IC50 ([1]; cultured cells, in-house screening on JIMT-1, read-out: IC50, suppresses cell growth) is reported as 190 nM and the “IC50 values compared with KHS101 and SPL-B” value [2] is reported as “significantly lower IC50 values”. The “induction of mitotic arrest, DNA damage and apoptosis markers” value [3] was “dose-dependent manner”, the “fraction of apoptotic cells (Annexin V/PI)” value [4] was 45.6% and the “IC50 value compared to SPL-B and KHS101” value [5] was “lowest IC50 value”. For the same compound, the “body weight of mice” value [6, 15] was “did not have any negative effect on the body weight”, the “tumor growth rate compared with control group” value [6, 15] was “decreased” and the “body weight of mice” value [6, 16] was “no major effect on the body weight”. The “tumor growth as compared to SPL-B” value [6, 16] was “significant reduction of tumor growth”, the mice weight ([6]; 25 mg/kg, po., 23 days) was “did not affect the mice weight” and the “tumor growth compared to vehicle-treated mice” value ([6]; 25 mg/kg, po., 23 days) was “very significant reduction of tumor growth”. For the same compound, the “tumor weights compared to vehicle group” value ([6]; 25 mg/kg, po., 23 days) was “significantly lower”, the tolerability [7] was “well tolerated” and the tumor growth inhibition [7] was “significant tumor growth inhibition”. The increased lifespan ([7]; compared to vehicle) was 57.1%, the median survival ([7]; vehicle 14 days) was 22 days and the tolerability [8] was “well tolerated”. For the same compound, the tumor growth [8] was “significantly impaired tumor growth”, the tolerability [9] was “well tolerated” and the tumor growth [9] was “significantly impaired tumor growth”. The “metastatic growth compared to vehicle” value ([10]; 50 mg/kg daily orally) was “impair metastatic growth”, the overall survival ([10]; 50 mg/kg daily orally) was “significantly improved mice overall survival” and the median survival ([10]; 50 mg/kg every day orally, vehicle 19 days) was 28 days. The logD [11] was 2.3, the “stability in mouse liver microsomes” value [12] was “low stability” and the Kd [13] was 1.5 nM. For the same compound, the “N (number of binding sites)” value [13] was 0.704, the ΔH [13] was 4.929e+07 cal/mol and the ΔS [13] was 1.65E5 cal/mol/deg. The “stabilization of TACC3 protein in the presence of pronase” value [14] was “TACC3 protein was stabilized”.
